US10364256B2 (GlaxoSmithKline Intellectual Property Development Limited, priority 2015, dated 2019)
Read-outs that look alike come from different tables or passages of the source.

Assays:
[1] = test system: NQO1 specific enzyme activity in BEAS-2B cells (marker for NRF2 activation); test: BEAS-2B NQO1 MTT Assay; assay type: cell-based; settings: Homo sapiens, compound incubated 48 hours, read-out: EC50 (NQO1 specific enzyme activity induction)
Procedure, shortened: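 BEAS-2B cells treated with compound for 48 h at 37 °C, then lysed; NQO1 activity in lysates measured kinetically by MTT reduction at A570 over 30 min. pEC50 from 3-parameter fit of ΔOD/min versus log concentration; lysate also taken for Cell Titer Glo.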

[2] = molecular target: T1, Keap1 Kelch domain (321-609) / TAMRA-labeled 16mer NRF2 peptide (ETGE motif) (Homo sapiens, UniProt Q14145); test: NRF2-Keap1 FP Assay (Keap1 Kelch fluorescence polarization); assay type: binding; settings: 20 nM Keap1 (321-609), 8 nM Tamra labeled peptide
T1 construct: the Kelch domain (321-609) of Keap1 is used
Procedure, shortened: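 Compound dilutions (3-fold) were incubated 1 hr at room temperature with 20 nM Keap1 Kelch (321-609) and 8 nM TAMRA-labeled ETGE 16mer peptide. Buffer was 50 mM Tris pH 8.0, 100 mM NaCl, 5 mM MgCl2, 1 mM DTT, 2 mM CHAPS, 0.005% BSA. Fluorescence polarization (mP) was normalized to controls and fitted with a four-parameter equation to give pIC50.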

[3] = molecular target: T2, full length Keap1 protein / full length NRF2 protein (Homo sapiens, UniProt Q14145); test: NRF2-Keap1 TR-FRET Assay; assay type: binding; settings: 25 nM Keap1-FlagHis and 50 nM biotin-NRF2 added
T2 construct: full length NRF2 protein and full length Keap1 protein (Keap1 exists a dimer) are used; His
Procedure, shortened: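 Full-length Keap1-FlagHis preincubated with compound 2.25 h at 37 °C, then biotin-NRF2 added for 1.25 h at 4 °C, in Tris pH 8.0 with MgCl2, NaCl, BSA, DTT, CHAPS. TR-FRET 665/615 nm ratio normalised to with- and without-protein 1% DMSO controls; pIC50 from four-parameter fit.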

T2 sequence (Q14145 whole entry): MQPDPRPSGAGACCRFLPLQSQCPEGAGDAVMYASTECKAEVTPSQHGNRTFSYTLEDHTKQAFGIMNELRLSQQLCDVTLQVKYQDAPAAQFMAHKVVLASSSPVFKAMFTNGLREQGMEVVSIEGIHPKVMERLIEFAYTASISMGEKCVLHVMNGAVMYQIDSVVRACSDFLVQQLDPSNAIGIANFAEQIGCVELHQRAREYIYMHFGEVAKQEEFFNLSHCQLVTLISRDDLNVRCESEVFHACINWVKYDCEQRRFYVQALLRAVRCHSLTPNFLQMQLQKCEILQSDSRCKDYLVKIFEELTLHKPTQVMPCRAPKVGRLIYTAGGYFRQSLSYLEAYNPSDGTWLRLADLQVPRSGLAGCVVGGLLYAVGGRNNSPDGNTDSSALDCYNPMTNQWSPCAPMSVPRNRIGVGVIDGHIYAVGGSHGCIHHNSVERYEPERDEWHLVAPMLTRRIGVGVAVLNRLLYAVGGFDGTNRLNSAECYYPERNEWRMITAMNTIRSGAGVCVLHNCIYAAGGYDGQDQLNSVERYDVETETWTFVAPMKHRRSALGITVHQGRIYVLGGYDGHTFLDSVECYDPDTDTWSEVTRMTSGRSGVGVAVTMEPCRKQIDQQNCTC
T1 sequence (Q14145 321-609): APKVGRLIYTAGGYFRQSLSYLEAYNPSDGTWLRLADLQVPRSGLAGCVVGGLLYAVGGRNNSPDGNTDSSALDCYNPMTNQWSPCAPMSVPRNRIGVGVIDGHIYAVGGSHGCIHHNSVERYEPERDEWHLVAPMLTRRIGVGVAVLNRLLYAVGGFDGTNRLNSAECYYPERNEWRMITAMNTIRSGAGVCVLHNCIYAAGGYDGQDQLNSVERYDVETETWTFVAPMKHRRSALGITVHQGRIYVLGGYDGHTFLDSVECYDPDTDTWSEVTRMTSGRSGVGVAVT

IC50 [2] | IC50 [3] | Structure (SMILES) | EC50 ([1]; BEAS-2B, 48 h) | EC50 [1]
0.1 to 1 µM | 1 to 10 µM | CCCC1CCCCN1C(=O)c1cccc(-c2cccc(-n3ncc(C(=O)O)c3C3CC3c3cccnc3)c2)c1 (stereo not drawn) [Example 52, 1-{3-[3-(2-propylpiperidine-1-carbonyl)phenyl]phenyl}-5-[2-(pyridin-3-yl)cyclopropyl]-1H-pyrazole-4-carboxylic Acid] | 1 to 10 µM | –
0.01 to 0.1 µM | 0.1 to 1 µM | CCCC1CCCCN1C(=O)c1cccc(-c2cccc(-n3ncc(C(=O)O)c3CCc3cn(C)nn3)c2)c1F (stereo not drawn) [Example 56, 1-(2′-Fluoro-3′-(2-propylpiperidine-1-carbonyl)-[1,1′-biphenyl]-3-yl)-5-(2-(1-methyl-1H-1,2,3-triazol-4-yl)ethyl)-1H-pyrazole-4-carboxylic Acid] | – | 1 to 10 µM
0.01 to 0.1 µM | 0.1 to 1 µM | CCC[C@@H]1CCCCN1C(=O)c1cccc(-c2cccc(-n3ncc(C(=O)O)c3CCc3cn(C)nn3)c2)c1 [Example 58, (R)-5-(2-(1-Methyl-1H-1,2,3-triazol-4-yl)ethyl)-1-(3′-(2-propylpiperidine-1-carbonyl)-[1,1′-biphenyl]-3-yl)-1H-pyrazole-4-carboxylic Acid] | 1 to 10 µM | –
1 to 10 µM | 10 to 100 µM | CC(Oc1cccc(-c2cccc(-n3ncc(C(=O)O)c3C3CC3)c2)c1)C1CCCCC1 (stereo not drawn) [Example 60, 1-(3′-(1-Cyclohexylethoxy)-[1,1′-biphenyl]-3-yl)-5-cyclopropyl-1H-pyrazole-4-carboxylic Acid] | – | 1 to 10 µM
1 to 10 µM | > 100 µM | CC(C)Oc1cccc(-c2cccc(-n3ncc(C(=O)O)c3C(F)(F)F)n2)c1 [Example 66, 1-(6-(3-Isopropoxyphenyl)pyridin-2-yl)-5-(trifluoromethyl)-1H-pyrazole-4-carboxylic Acid] | – | 1 to 10 µM
1 to 10 µM | 10 to 100 µM | Cn1cc(CCc2c(C(=O)O)cnn2-c2cccc(-c3cccc(OCC4CCCCC4)c3)c2)nn1 [Example 151, 1-(3-(Cyclohexylmethoxy)-[1,1′-biphenyl]-3-yl)-5-(2-(1-methyl-1H-1,2,3-triazol-4-yl)ethyl)-1H-pyrazole-4-carboxylic acid] | – | 1 to 10 µM
0.1 to 1 µM | 1 to 10 µM | CCn1cc(C2CC2c2c(C(=O)O)cnn2-c2cccc(-c3cccc(C(=O)N(C)C)c3)c2)nn1 (stereo not drawn) [Example 158, 1-(3′-(dimethylcarbamoyl)-[1,1′-biphenyl]-3-yl)-5-(2-(1-ethyl-1H-1,2,3-triazol-4-yl)cyclopropyl)-1H-pyrazole-4-carboxylic Acid] | – | 1 to 10 µM
0.01 to 0.1 µM | 0.01 to 0.1 µM | CCC[C@@H]1CCCCN1C(=O)c1cccc(-c2cccc(-n3ncc(C(=O)O)c3C3CC3c3cnoc3C)c2)c1 (stereo partly drawn) [Example 159, 5-(2-(5-Methylisoxazol-4-yl)cyclopropyl)-1-(3′-((R)-2-propylpiperidine-1-carbonyl)-[1,1′-biphenyl]-3-yl)-1H-pyrazole-4-carboxylic Acid] | 0.1 to 1 µM | –
0.1 to 1 µM | 0.1 to 1 µM | Cn1cc(C2CC2c2c(C(=O)O)cnn2-c2cccc(-c3cccc(OCC4CCCOC4)c3)c2)nn1 (stereo not drawn) [Example 169, 5-(2-(1-Methyl-1H-1,2,3-triazol-4-yl)cyclopropyl)-1-(3′-((tetrahydro-2H-pyran-3-yl)methoxy)-[1,1′-biphenyl]-3-yl)-1H-pyrazole-4-carboxylic acid] | – | 1 to 10 µM
0.1 to 1 µM | 1 to 10 µM | CCCC(COc1cccc(-c2cccc(-n3ncc(C(=O)O)c3C3CC3c3cn(C)nn3)c2)c1)C1CCCCC1 (stereo not drawn) [Example 172, 1-(3′-((2-Cyclohexylpentyl)oxy)-[1,1′-biphenyl]-3-yl)-5-(2-(1-methyl-1H-1,2,3-triazol-4-yl)cyclopropyl)-1H-pyrazole-4-carboxylic acid] | – | 0.1 to 1 µM
0.01 to 0.1 µM | 0.1 to 1 µM | CC(COc1cccc(-c2cccc(-n3ncc(C(=O)O)c3C3CC3c3cn(C)nn3)c2)c1)C1CCCCC1 (stereo not drawn) [Example 173, 1-(3′-(2-Cyclohexylpropoxy)-[1,1′-biphenyl]-3-yl)-5-(2-(1-methyl-1H-1,2,3-triazol-4-yl)cyclopropyl)-1H-pyrazole-4-carboxylic acid] | – | 0.01 to 0.1 µM
0.01 to 0.1 µM | 0.1 to 1 µM | Cn1cc(C2CC2c2c(C(=O)O)cnn2-c2cccc(-c3cccc(OCC4CCOCC4)c3)c2)nn1 (stereo not drawn) [Example 174, 5-(2-(1-Methyl-1H-1,2,3-triazol-4-yl)cyclopropyl)-1-(3′-((tetrahydro-2H-pyran-4-yl)methoxy)-[1,1′-biphenyl]-3-yl)-1H-pyrazole-4-carboxylic acid] | – | 1 to 10 µM
0.01 to 0.1 µM | 0.1 to 1 µM | Cn1cc(C2CC2c2c(C(=O)O)cnn2-c2cccc(-c3cccc(OCC4CCCCO4)c3)c2)nn1 (stereo not drawn) [Example 175, 5-(2-(1-Methyl-1H-1,2,3-triazol-4-yl)cyclopropyl)-1-(3′-((tetrahydro-2H-pyran-2-yl)methoxy)-[1,1′-biphenyl]-3-yl)-1H-pyrazole-4-carboxylic acid] | – | 1 to 10 µM
0.1 to 1 µM | 1 to 10 µM | CC(C)Oc1cccc(-c2cccc(-n3ncc(C(=O)O)c3C3CC3c3cn(C)nn3)c2)c1F (stereo not drawn) [Example 181, 1-(2′-Fluoro-3′-isopropoxy-[1,1′-biphenyl]-3-yl)-5-(2-(1-methyl-1H-1,2,3-triazol-4-yl)cyclopropyl)-1H-pyrazole-4-carboxylic acid] | – | 1 to 10 µM
0.01 to 0.1 µM | 0.1 to 1 µM | CCOC(c1cccc(-c2cccc(-n3ncc(C(=O)O)c3C3CC3c3cn(C)nn3)c2)c1)C(C)C (stereo not drawn) [Example 182, 1-(3′-(1-Ethoxy-2-methylpropyl)-[1,1′-biphenyl]-3-yl)-5-(2-(1-methyl-1H-1,2,3-triazol-4-yl)cyclopropyl)-1H-pyrazole-4-carboxylic acid] | – | 0.1 to 1 µM
0.01 to 0.1 µM | 0.1 to 1 µM | COC(c1cccc(-c2cccc(-n3ncc(C(=O)O)c3C3CC3c3cn(C)nn3)c2)c1)C(C)C (stereo not drawn) [Example 184, 1-(3′-(1-Methoxy-2-methylpropyl)-[1,1′-biphenyl]-3-yl)-5-(2-(1-methyl-1H-1,2,3-triazol-4-yl)cyclopropyl)-1H-pyrazole-4-carboxylic acid] | – | 0.1 to 1 µM
> 10 µM | 10 to 100 µM | Cn1cc(C2CC2c2c(C(=O)O)cnn2-c2cc(C#N)cc(-c3cccc(OCC4CCCCC4)c3)c2)nn1 (stereo not drawn) [Example 189, 1-(5-cyano-3′-(cyclohexylmethoxy)-[1,1′-biphenyl]-3-yl)-5-(2-(1-methyl-1H-1,2,3-triazol-4-yl)cyclopropyl)-1H-pyrazole-4-carboxylic acid] | – | 1 to 10 µM
1 to 10 µM | 10 to 100 µM | Cn1cnc(C2CC2c2c(C(=O)O)cnn2-c2cccc(-c3cccc(OCC4CCCCC4)c3)c2)c1 (stereo not drawn) [Example 190, 1-(3′-(cyclohexylmethoxy)-[1,1′-biphenyl]-3-yl)-5-(2-(1-methyl-1H-imidazol-4-yl)cyclopropyl)-1H-pyrazole-4-carboxylic acid] | – | 1 to 10 µM
0.01 to 0.1 µM | 0.01 to 0.1 µM | CCC[C@@H]1CCCCN1C(=O)c1cc(F)cc(-c2cccc(-n3ncc(C(=O)O)c3C3CC3c3cn(C)nn3)c2)c1 (stereo partly drawn) [Example 198, 1-(3′-Fluoro-5′-((R)-2-propylpiperidine-1-carbonyl)-[1,1′-biphenyl]-3-yl)-5-(2-(1-methyl-1H-1,2,3-triazol-4-yl)cyclopropyl)-1H-pyrazole-4-carboxylic acid] | 0.1 to 1 µM | –
1 to 10 µM | 1 to 10 µM | CCC[C@@H]1CCCCN1C(=O)c1cccc(-c2cccc(-n3nc(C)c(C(=O)O)c3C3CC3)c2)c1 [Example 203, (R)-5-Cyclopropyl-3-methyl-1-(3′-(2-propylpiperidine-1-carbonyl)-[1,1′-biphenyl]-3-yl)-1H-pyrazole-4-carboxylic acid] | – | 1 to 10 µM

Structure (SMILES) | IC50 [2] | IC50 [3] | EC50 ([1]; BEAS-2B, 48 h) | EC50 [1]
Cn1cc(CCCCOc2cccc(-c3cccc(-n4ncc(C(=O)O)c4C4CC4)c3)c2)nn1 [Example 153, 5-Cyclopropyl-1-(3′-(4-(1-methyl-1H-1,2,3-triazol-4-yl)butoxy)-[1,1′-biphenyl]-3-yl)-1H-pyrazole-4-carboxylic Acid] | 1 to 10 µM | 10 to 100 µM | – | 1 to 10 µM
Cn1cc(C2CC2c2c(C(=O)O)cnn2-c2cccc(-c3cccc(OC(C)(C)C)c3)c2)nn1 (stereo not drawn) [Example 166, 1-(3′-(tert-Butoxy)-[1,1′-biphenyl]-3-yl)-5-(2-(1-methyl-1H-1,2,3-triazol-4-yl)cyclopropyl)-1H-pyrazole-4-carboxylic acid] | 0.01 to 0.1 µM | 0.1 to 1 µM | – | 0.1 to 1 µM
COCCC(COc1cccc(-c2cccc(-n3ncc(C(=O)O)c3C3CC3c3cn(C)nn3)c2)c1)C1CCCCC1 (stereo not drawn) [Example 168, 1-(3′-(2-Cyclohexyl-4-methoxybutoxy)-[1,1′-biphenyl]-3-yl)-5-(2-(1-methyl-1H-1,2,3-triazol-4-yl)cyclopropyl)-1H-pyrazole-4-carboxylic acid] | 0.01 to 0.1 µM | 0.1 to 1 µM | – | 0.01 to 0.1 µM
